# Results: PMC9921896 (Molecules, 2023)
# Tests used:
# Experiment in all cases: Single concentration Kobs assay (time-dependent inhibition) in HLM
# CYP3A4/5 = format: biochemical, human; conditions: for Kobs 3A4: HLM, 0.02 min^−1 indicates TD inhibition potential; for Kobs 3A4 / inhibition at 30 min: single concentration; for Single concentration Kobs assay (risk bin) 3A4: TD inhibition class from Kobs vs 0.02 min^−1 (Table 5 traffic lights); for inhibition at 30 min: human, human liver microsomes, significant if >50%, read-out: 3A4 R_Inh% (reversible inhibition)
# Excerpt: (§1) CYP inhibition evaluation is typically performed by either IC50 at single-point or IC50 Shift or abbreviated assay such as the first-order inactivity rate constant (K obs ) at single concentration.
# (§2) This method yielded good correlations between the percent inhibition at 10 or 25 μ M and kinact/KI. Evaluation of TD inhibition at single concentration has been implemented in several drug discovery programs. […] Therefore, in this study, a single K obs approach has been utilized to understand the TD inhibition potential of TbB ligands. Ideally, the inhibition of CYPs can be reversible or irreversible. The data obtained from single-concentration K obs studies were analyzed to understand the same. From the data presented in Table 4, the TbB ligands have values less than 50% for reversible inhibition (R_Inh). As the qualified % reversible inhibition is considered significant if >50%, no significant reversible inhibition is observed for TbB ligands. Knowledge about enzyme inactivation half-life (E½) is also equally important as it would provide insight into the TD inhibition of a compound. E½ can be used to bin the compounds as positive or negative TD inhibitors if the values are <28 or >28, respectively. The TbB ligand 223-2 is observed to be a weak positive TD inhibitor of 1A2 and is negative TD inhibitor to the other six CYP isoforms.
# (§3) The time-dependent inhibition (TDI) potential of test compounds against CYP1A2, 2B6, 2C8, 2C9, 2C19, 2D6, 3A4/5 isoforms were determined using Human liver microsomes. Assay is performed in 96-deep well plate format (n = 1). Positive controls and DMSO as negative control in each assay. To obtain 100 μ M working stock solution, 1 μ L of blank DMSO/test/reference compounds to 100 μ L 1× DPBS buffer was added and labeled as dilution plate. To the primary incubation plate, 45 μ L of primary mix was dispensed to the desired wells containing 25 μ L HLM, 10 μ L MgCl2, and 10 μ L of NADPH working solutions. To the secondary incubation plate, 95 μ L of secondary mix was dispensed to the desired wells containing 20 μ L MgCl2, 20 μ L NADPH, 10 μ L respective substrates for CYP isoform working solutions and 45 μ L 1× DPBS buffer. Each of these four plates were labeled with their respective time points, i.e., 0, 6, 16, 32 min. Pre-incubated the dilution plate along with primary incubation plate at 37 °C for 15 min at 450 rpm. The reaction was carried out in triplicate. After the incubation, the reaction was quenched by adding 150 μ L ice cold stop solution to all the wells followed by centrifuging the samples at 4000 rpm, 4 °C for 15 min. The supernatant samples were then transferred into vials for LC-MS/MS analysis. The percent Reversible Inhibition was calculated using the following formula. %Reversibleinhibition=100−(PARtestcompt0×100)/(PARaverageDMSOt0)
# CYP2C8 = target: T1, CYP2C8 (Homo sapiens, UniProt P10632); format: biochemical; conditions: for Kobs 2C8: HLM, 0.02 min^−1 indicates TD inhibition potential; for Kobs 2C8 / inhibition at 30 min: single concentration; for Single concentration Kobs assay (risk bin) 2C8: TD inhibition class from Kobs vs 0.02 min^−1 (Table 5 traffic lights); for inhibition at 30 min: human, human liver microsomes, significant if >50%, read-out: 2C8 R_Inh% (reversible inhibition)
# T1 construct: Using HLM as the enzyme source; from tissue; host or cells: human liver microsomes
# T1 sequence (P10632 1-490): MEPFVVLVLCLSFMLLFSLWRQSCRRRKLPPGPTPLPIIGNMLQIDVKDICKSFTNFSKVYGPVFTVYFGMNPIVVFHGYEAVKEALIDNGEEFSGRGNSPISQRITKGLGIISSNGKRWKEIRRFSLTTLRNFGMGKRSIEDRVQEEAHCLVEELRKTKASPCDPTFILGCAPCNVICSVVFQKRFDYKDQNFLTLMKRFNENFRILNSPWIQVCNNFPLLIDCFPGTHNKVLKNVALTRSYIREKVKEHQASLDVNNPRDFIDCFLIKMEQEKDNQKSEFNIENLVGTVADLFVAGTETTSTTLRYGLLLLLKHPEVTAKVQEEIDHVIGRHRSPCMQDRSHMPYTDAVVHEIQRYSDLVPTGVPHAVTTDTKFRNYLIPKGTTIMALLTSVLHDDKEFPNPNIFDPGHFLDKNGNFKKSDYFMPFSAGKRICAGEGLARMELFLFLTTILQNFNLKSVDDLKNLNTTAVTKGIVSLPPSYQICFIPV
# Excerpt: as §1, §2, §3
# CYP2D6 = target: T2, CYP2D6 (Homo sapiens, UniProt P10635); format: biochemical; conditions: for Kobs 2D6: HLM, 0.02 min^−1 indicates TD inhibition potential; for Kobs 2D6 / inhibition at 30 min: single concentration; for Single concentration Kobs assay (risk bin) 2D6: TD inhibition class from Kobs vs 0.02 min^−1 (Table 5 traffic lights); for inhibition at 30 min: human, human liver microsomes, significant if >50%, read-out: 2D6 R_Inh% (reversible inhibition)
# T2 construct: Using HLM as the enzyme source; from tissue; host or cells: human liver microsomes
# T2 sequence (P10635 whole entry): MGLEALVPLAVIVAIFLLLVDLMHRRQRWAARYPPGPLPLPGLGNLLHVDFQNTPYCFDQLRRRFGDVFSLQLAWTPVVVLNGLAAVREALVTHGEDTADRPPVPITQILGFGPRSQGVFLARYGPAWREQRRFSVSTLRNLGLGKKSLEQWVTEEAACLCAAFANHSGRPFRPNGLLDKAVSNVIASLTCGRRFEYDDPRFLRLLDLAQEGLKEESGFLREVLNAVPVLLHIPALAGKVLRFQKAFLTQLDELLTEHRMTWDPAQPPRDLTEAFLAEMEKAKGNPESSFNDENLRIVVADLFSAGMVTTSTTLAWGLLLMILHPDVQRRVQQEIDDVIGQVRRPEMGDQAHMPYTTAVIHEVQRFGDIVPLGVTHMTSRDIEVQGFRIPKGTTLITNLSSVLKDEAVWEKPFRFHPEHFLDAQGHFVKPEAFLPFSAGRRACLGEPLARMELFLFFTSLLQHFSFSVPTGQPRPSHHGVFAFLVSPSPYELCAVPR
# Excerpt: as §1, §2, §3
# CYP2B6 = target: T3, CYP2B6 (Homo sapiens, UniProt P20813); format: biochemical; conditions: for Kobs 2B6: HLM, single concentration, 0.02 min^−1 indicates TD inhibition potential; for Single concentration Kobs assay (risk bin) 2B6: TD inhibition class from Kobs vs 0.02 min^−1 (Table 5 traffic lights)
# T3 construct: Using HLM as the enzyme source; from tissue; host or cells: human liver microsomes
# T3 sequence (P20813 1-491): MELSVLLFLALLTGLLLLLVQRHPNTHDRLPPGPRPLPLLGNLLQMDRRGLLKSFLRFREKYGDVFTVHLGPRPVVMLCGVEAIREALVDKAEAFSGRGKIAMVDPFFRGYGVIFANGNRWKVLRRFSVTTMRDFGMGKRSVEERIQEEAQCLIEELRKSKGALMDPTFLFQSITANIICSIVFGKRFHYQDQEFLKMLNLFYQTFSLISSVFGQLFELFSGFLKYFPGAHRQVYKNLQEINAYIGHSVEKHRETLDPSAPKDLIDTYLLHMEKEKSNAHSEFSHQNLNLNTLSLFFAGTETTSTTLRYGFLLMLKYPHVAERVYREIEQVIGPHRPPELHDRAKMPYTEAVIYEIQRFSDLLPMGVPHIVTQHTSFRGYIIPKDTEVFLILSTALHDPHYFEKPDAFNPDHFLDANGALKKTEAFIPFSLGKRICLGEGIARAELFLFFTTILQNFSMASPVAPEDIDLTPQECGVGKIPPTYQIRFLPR
# Excerpt: as §1, §2, §3
Compound,Kobs 3A4 (CYP3A4/5),Single concentration Kobs assay (risk bin) 3A4 (CYP3A4/5),inhibition at 30 min (CYP3A4/5),Kobs 2C8 (CYP2C8),Single concentration Kobs assay (risk bin) 2C8 (CYP2C8),inhibition at 30 min (CYP2C8),Kobs 2D6 (CYP2D6),Single concentration Kobs assay (risk bin) 2D6 (CYP2D6),inhibition at 30 min (CYP2D6),Kobs 2B6 (CYP2B6),Kobs 2B6 (CYP2B6; listed as 223-02),Single concentration Kobs assay (risk bin) 2B6 (CYP2B6)
COc1cc(-c2nnn(-c3cc(OC)c(O)c(OC)c3)n2)cc(OC)c1O [223-2],0.006312 min⁻¹,negative inhibitor,< 50%,0.004276 min⁻¹,negative inhibitor,< 50%,1.479e-10 min⁻¹,negative inhibitor,< 50%,0.0147 min⁻¹,0.01472 min⁻¹,weak positive inhibitor
Cc1cc(-c2nnn(-c3cc(C)c(O)c(C)c3)n2)cc(C)c1O [223-3],0.02143 min⁻¹,weak positive inhibitor,< 50%,0.02943 min⁻¹,positive inhibitor,< 50%,0.01109 min⁻¹,weak positive inhibitor,< 50%,0.02027 min⁻¹,,weak positive inhibitor
Oc1ccc(-c2nnn(-c3ccc(O)cc3)n2)cc1 [223-10],0.001719 min⁻¹,negative inhibitor,< 50%,0.01585 min⁻¹,weak positive inhibitor,< 50%,0.009064 min⁻¹,negative inhibitor,< 50%,0.01121 min⁻¹,,weak positive inhibitor
